Test results: patent EP2156836A1, “[…] PHARMACEUTICAL COMPOSITIONS CONSISTING OF A COMBINATION OF A 5 alpha-REDUCTASE ENZYME INHIBITOR AND A 1 alpha- […] RECEPTOR ANTAGONIST” (priority 2007, dated 2008)
Where two headings read alike, the source gives them in different places.

Key:
[1] = test system: Benign Prostatic Hyperplasia; conditions: for Incontinence (patients/group) / Invasive Therapy due to BPH (patients/group) / Urinary Retention (patients/group) / Urinary Tract infection (patients/group) / Incontinence / Invasive Therapy due to BPH / Urinary Retention / Urinary Tract infection: 12 months; for Incontinence (patients/group) / Invasive Therapy due to BPH (patients/group) / Urinary Retention (patients/group) / Urinary Tract infection (patients/group) / Incontinence / Invasive Therapy due to BPH / Urinary Retention / Urinary Tract infection / Increase in symptoms according to the score from American Association of Urology at 12 months of treatment / Increase in symptoms according to the score from American Association of Urology at 12 months of treatment (patients/group): same dosing as E17; for Clinical Progression of BPH at 12 months of treatment (patients/group): daily tablet 12 months: Doxazosine titrated 1 to 8 mg, combination Dutasteride 0.5 mg + Doxazosine 1 mg; for Clinical Progression of BPH at 12 months of treatment (patients/group) / Clinical Progression of BPH at 12 months of treatment: Dutasteride 0.5 mg; for Clinical Progression of BPH at 12 months of treatment (patients/group) / Increase in symptoms according to the score from American Association of Urology at 12 months of treatment (patients/group): n=40 per group; for Side Effects / patients who discontinued the treatment: human, in vivo; for Incontinence / Invasive Therapy due to BPH / Urinary Retention / Urinary Tract infection / Clinical Progression of BPH at 12 months of treatment / Increase in symptoms according to the score from American Association of Urology at 12 months of treatment: percent of patients; for Clinical Progression of BPH at 12 months of treatment: Doxazosine titrated 1 to 8 mg, combination 0.5 mg + 1 mg, n=40
Description: (§1) Said clinical trial was applied in 160 male patients with a 64-year old average, wherein the symptoms manifested according to Urology American Association ranking were scored (score is assigned according to the following criteria: from 0= No symptoms to 35= severe symptoms). […] Finally, vital signs, treatment compliance and side effects were assessed for each of the groups.
(§2) At the beginning and at the end of said clinical trial the following examinations were applied to the patients: digital rectal examination, prostate-specific antigen assessment and urine analysis.
Subjects were randomized and assigned to a double-blind study divided into 4 groups.

prostate size = conditions: cited from earlier work; for reduction of prostate size: Dutasteride daily dosage; for reduces prostate size: stated for the 5α-reductase enzyme inhibitors as a class
[2] = cited from earlier work; for serum concentrations as share of the equilibrium state concentration: daily dosage
[3] = test system: Benign Prostatic Hyperplasia; assay type: in vivo, male patients; conditions: for Clinical Progression of BPH at 12 months of treatment (patients/group) / Clinical Progression of BPH at 12 months of treatment: daily tablet 12 months: Alfuzosine 10 mg, Finasteride 5 mg; for Clinical Progression of BPH at 12 months of treatment (patients/group): combination Finasteride 5 mg + Alfuzosine 5 mg; for Clinical Progression of BPH at 12 months of treatment (patients/group) / Increase in symptoms according to the score from American Association of Urology at 12 months of treatment (patients/group): n=40 per group; for Side Effects / patients who discontinued the treatment: human, in vivo; for Clinical Progression of BPH at 12 months of treatment: combination 5 mg + 5 mg, n=40
Description: In this clinical trial several tests were performed wherein Placebo, Finasteride, Alfuzosine and a combination of Finasteride/Alfuzosine were administered to a population of patients diagnosed with Benign Prostatic Hyperplasia.
as §1, with “60-year” for “64-year”
as §2
Subjects were randomized and assigned to a double-blind study divided into 4 groups. Randomization was stratified and medicament administration at night. • Group 1 Placebo: Patients received a daily tablet along 12 months. • Group 2 Finasteride: Patients received a daily 5 mg tablet along 12 months. • Group 3 Alfuzosine: Patients received a daily 10 mg tablet along 12 months. • Group 4 Combination: Patients received a tablet with a combination of Finasteride 5 mg and Alfuzosine 5 mg daily along 12 months.

BPH = conditions: cited from earlier work
[4] = in vivo; cited from earlier work
plasmatic proteins = conditions: plasma; cited from earlier work
blood pressure = conditions: after oral administration; cited from earlier work
[5] = percent of patients, 12 months, same dosing as E1
[6] = percent of patients, same dosing as E1

SMILES	Incontinence (patients/group) [1]	Invasive Therapy due to BPH (patients/group) [1]	Urinary Retention (patients/group) [1]	Urinary Tract infection (patients/group) [1]	Clinical Progression of BPH at 12 months of treatment (patients/group) [1]	Side Effects [1]	patients who discontinued the treatment [1] [%]	Incontinence [1] [%]	Invasive Therapy due to BPH [1] [%]	Urinary Retention [1] [%]	Urinary Tract infection [1] [%]	Clinical Progression of BPH at 12 months of treatment [1] [%]	Increase in symptoms according to the score from American Association of Urology at 12 months of treatment [1] [%]	Increase in symptoms according to the score from American Association of Urology at 12 months of treatment (patients/group) [1]	reduces prostate size (prostate size)	Incontinence (patients/group) ([3]; 12 months, same dosing as E1)	Invasive Therapy due to BPH (patients/group) ([3]; 12 months, same dosing as E1)	Urinary Tract infection (patients/group) ([3]; 12 months, same dosing as E1)	Clinical Progression of BPH at 12 months of treatment (patients/group) [3]	Side Effects [3]	further results
C[C@]12C=CC(=O)N[C@@H]1CC[C@@H]1[C@@H]2CC[C@]2(C)[C@@H](C(=O)Nc3cc(C(F)(F)F)ccc3C(F)(F)F)CC[C@@H]12 [Dutasteride]	5/40	2/40	15/40	1/40	11/40	erectile dysfunction, libido decrease and/or abnormal ejaculation	60	12.5	5	37.5	2.5	27.5	35	14/40	up to 50%	–	–	–	–	–	reduction of prostate size (prostate size; in some patients): up to 50%; reduction of prostate size (prostate size): at least 20%; half-life in blood ([2]; blood): 3-5 weeks; serum concentrations as share of the equilibrium state concentration ([2]; after one month): 65%; serum concentrations as share of the equilibrium state concentration ([2]; after three months): approximately 90%
CC(C)(C)NC(=O)[C@H]1CC[C@H]2[C@@H]3CC[C@H]4NC(=O)C=C[C@]4(C)[C@H]3CC[C@]12C [Finasteride]	–	–	–	–	–	–	–	–	–	–	–	–	–	–	up to 50%	3/40	2/40	1/40	13/40	erectile dysfunction, libido decrease and/or abnormal ejaculation	patients who discontinued the treatment [3]: 45%; Incontinence [3, 5]: 7.5%; Invasive Therapy due to BPH [3, 5]: 5%; Urinary Tract infection [3, 5]: 2.5%; Clinical Progression of BPH at 12 months of treatment ([3]; percent of patients): 32.5%; Increase in symptoms according to the score from American Association of Urology at 12 months of treatment [3, 6]: 37.5%; Increase in symptoms according to the score from American Association of Urology at 12 months of treatment (patients/group) ([3]; same dosing as E1): 15/40; Incidence of side effects during Finasteride treatment (BPH; most common: erectile dysfunction, decrease in ejaculated semen volume): about 3%; reduction in DHT concentration in blood and in prostate gland (BPH; patients who suffer BPH): ≤ 30%; reduction of prostate-specific antigen (PSA) serum levels (BPH; patients who suffer BPH): up to 50%; efficacy in an analysis of six clinical studies (BPH; when prostate weighed >40 g, Logan YT, Belgeri MT 2005): very effective
COc1cc2nc(N3CCN(C(=O)C4COc5ccccc5O4)CC3)nc(N)c2cc1OC (stereo not drawn) [Doxazosine]	6/40	5/40	22/40	3/40	18/40	dizziness, postural hypotension, and asthenia	99	15	12.5	55	7.5	45	50	20/40	–	–	–	–	–	–	share of the dose removed by urine [4]: 9%; bound to plasmatic proteins (plasmatic proteins): 98-99%; duration of hypotensive effects (remaining active) (blood pressure): at least 24 hours; time at which hypotensive effects are observed (blood pressure): 2 h
COc1cc2nc(N(C)CCCNC(=O)C3CCCO3)nc(N)c2cc1OC (stereo not drawn) [Alfuzosine]	–	–	–	–	–	–	–	–	–	–	–	–	–	–	–	4/40	4/40	2/40	18/40	dizziness, postural hypotension, asthenia and impotence	Urinary Retention (patients/group) ([3]; 12 months, same dosing as E1): 21/40; patients who discontinued the treatment [3]: 95%; Incontinence [3, 5]: 10%; Invasive Therapy due to BPH [3, 5]: 10%; Urinary Retention [3, 5]: 52.5%; Urinary Tract infection [3, 5]: 5%; Clinical Progression of BPH at 12 months of treatment ([3]; percent of patients): 45%; Increase in symptoms according to the score from American Association of Urology at 12 months of treatment [3, 6]: 47.5%; Increase in symptoms according to the score from American Association of Urology at 12 months of treatment (patients/group) ([3]; same dosing as E1): 19/40
